Key:
Glucocorticoid receptor [1] = target: T1, Glucocorticoid receptor (Homo sapiens, UniProt P04150); assay: Binding affinity to human GR
T1 sequence (P04150 whole entry): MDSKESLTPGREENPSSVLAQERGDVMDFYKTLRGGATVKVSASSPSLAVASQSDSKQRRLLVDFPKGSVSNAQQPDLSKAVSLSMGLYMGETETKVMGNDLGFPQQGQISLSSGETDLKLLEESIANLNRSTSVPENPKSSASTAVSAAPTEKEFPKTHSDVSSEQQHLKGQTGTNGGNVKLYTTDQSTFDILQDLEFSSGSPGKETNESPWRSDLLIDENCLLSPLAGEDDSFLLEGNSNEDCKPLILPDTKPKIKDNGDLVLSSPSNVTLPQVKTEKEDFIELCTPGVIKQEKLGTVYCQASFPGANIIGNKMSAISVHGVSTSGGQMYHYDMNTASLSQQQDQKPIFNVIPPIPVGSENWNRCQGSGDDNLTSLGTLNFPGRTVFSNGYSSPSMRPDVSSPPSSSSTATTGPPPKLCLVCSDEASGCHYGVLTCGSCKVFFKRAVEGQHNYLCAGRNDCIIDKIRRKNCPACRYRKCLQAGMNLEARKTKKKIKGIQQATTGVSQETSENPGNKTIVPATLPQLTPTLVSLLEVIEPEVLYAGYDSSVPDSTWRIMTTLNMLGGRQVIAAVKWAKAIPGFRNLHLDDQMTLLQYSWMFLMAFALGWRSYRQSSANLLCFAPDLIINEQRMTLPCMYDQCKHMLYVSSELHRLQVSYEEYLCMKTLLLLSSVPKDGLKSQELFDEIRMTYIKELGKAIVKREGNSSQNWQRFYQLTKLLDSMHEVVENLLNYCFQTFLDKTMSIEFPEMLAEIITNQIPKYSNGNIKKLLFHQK

Glucocorticoid receptor [2] = target: T1, Glucocorticoid receptor; assay: Activity at GR expressed in CHO cells assessed as decrease in dexamethasone-stimulated alkaline phosphatase production by GRAF assay; type: cell-based
[3] = Protein binding in rat plasma; type: ADME, cell-free; conditions: read-out: PPB (converted)
Rattus norvegicus [4] = assay: Liver concentration in Sprague-Dawley rat after 7 hrs at 100 mg/kg, po; type: ADME, organism-based; design: dose 100 mg/kg, route oral; conditions: in vivo
Rattus norvegicus [5] = assay: Inhibition of prednisilone-stimulated TAT production in Sprague-Dawley rat at 100 mg/kg, po; type: functional
[6] = Plasma concentration in Sprague-Dawley rat after 7 hrs at 100 mg/kg, po; type: ADME, organism-based; design: dose 100 mg/kg, route oral
[7] = Stability in rat liver microsomes after 20 mins; type: ADME, Microsome; conditions: read-out: Stability
Rattus norvegicus [8] = assay: Inhibition of prednisilone-induced glycogen deposition in Sprague-Dawley rat at 100 mg/kg, po; type: functional
Rattus norvegicus [9] = assay: Inhibition of prednisilone-induced lymphopenia in Sprague-Dawley rat at 100 mg/kg, po; type: functional

| Structure (SMILES) | IC50 (Glucocorticoid receptor [1]) [nM] | IC50 (Glucocorticoid receptor [2]) [nM] | fraction unbound [3] | Drug uptake (Rattus norvegicus [4]) [%] | inhibition in vivo at 100 mg/kg (Rattus norvegicus [5]) [%] | concentration at 7 h [6] [µM] | remaining at 20 min [7] [%] | inhibition in vivo at 100 mg/kg (Rattus norvegicus [8]) [%] | inhibition in vivo at 100 mg/kg (Rattus norvegicus [9]) [%] |
| --- | --- | --- | --- | --- | --- | --- | --- | --- | --- |
| CC#C[C@]1(O)CC[C@H]2[C@@H]3CCC4=CC(=O)CCC4=C3[C@@H](c3c(OC)cc(OC)cc3OC)C[C@@]21C | 481 |  |  |  |  |  |  |  |  |
| CC#C[C@]1(O)CC[C@H]2[C@@H]3CCC4=CC(=O)CCC4=C3[C@@H](c3ccc(OC)cc3)C[C@@]21C | 0.9 | 7.6 |  |  |  |  |  |  |  |
| CC#C[C@]1(O)CC[C@H]2[C@@H]3CCC4=CC(=O)CCC4=C3[C@@H](c3c(F)cc(OC)cc3F)C[C@@]21C | 0.7 | 10.1 |  |  |  |  |  |  |  |
| CC#C[C@]1(O)CC[C@H]2[C@@H]3CCC4=CC(=O)CCC4=C3[C@@H](c3ccc(OC)cc3C)C[C@@]21C | 9 | 32 |  |  |  |  |  |  |  |
| CC#C[C@]1(O)CC[C@H]2[C@@H]3CCC4=CC(=O)CCC4=C3[C@@H](c3ccc(OCCO[C@H]4CC[C@@]5(C)[C@@H](C4)C[C@@H](O)[C@@H]4[C@@H]5C[C@H](O)[C@]5(C)[C@@H]([C@H](C)CCC(=O)O)CC[C@@H]45)c(C)c3)C[C@@]21C | 3.1 | 30.7 | 0.017 | 22.2 | 31 | 4.5 | 95 | 0 | 20 |
| CC#C[C@]1(O)CC[C@H]2[C@@H]3CCC4=CC(=O)CCC4=C3[C@@H](c3cc(C)c(OC)c(C)c3)C[C@@]21C | 0.4 | 2.8 |  |  |  |  |  |  |  |
| CC#C[C@]1(O)CC[C@H]2[C@@H]3CCC4=CC(=O)CCC4=C3[C@@H](c3ccc(SC)cc3)C[C@@]21C | 0.6 | 1.8 |  |  |  |  |  |  |  |
| CC#C[C@]1(O)CC[C@H]2[C@@H]3CCC4=CC(=O)CCC4=C3[C@@H](c3ccc(O)c(C)c3)C[C@@]21C | 4.5 | 28.6 |  |  |  |  |  |  |  |
| CC#C[C@]1(O)CC[C@H]2[C@@H]3CCC4=CC(=O)CCC4=C3[C@@H](c3ccc(-c4ccc(OC)cc4)cc3)C[C@@]21C | 0.7 | 4.2 |  |  |  |  | 96 |  |  |
| CC#C[C@]1(O)CC[C@H]2[C@@H]3CCC4=CC(=O)CCC4=C3[C@@H](c3c(F)cc(OC)cc3OC)C[C@@]21C | 6.1 | 43 |  |  |  |  |  |  |  |
| CC#C[C@]1(O)CC[C@H]2[C@@H]3CCC4=CC(=O)CCC4=C3[C@@H](c3ccc(-c4ccc(OCCO[C@H]5CC[C@@]6(C)[C@@H](C5)C[C@@H](O)[C@@H]5[C@@H]6C[C@H](O)[C@]6(C)[C@@H]([C@H](C)CCC(=O)O)CC[C@@H]56)cc4)cc3)C[C@@]21C | 2.5 | 23.5 |  |  | 44 |  | 100 | 51 | 40 |
| CC#C[C@]1(O)CC[C@H]2[C@@H]3CCC4=CC(=O)CCC4=C3[C@@H](c3cc(OC)c(OC)c(OC)c3)C[C@@]21C | 60.7 |  |  |  |  |  |  |  |  |
| C=CCOc1c(C)cc([C@H]2C[C@@]3(C)[C@@H](CC[C@@]3(O)C#CC)[C@@H]3CCC4=CC(=O)CCC4=C32)cc1Cl | 1.5 | 20.9 |  |  |  |  |  |  |  |
| CC#C[C@]1(O)CC[C@H]2[C@@H]3CCC4=CC(=O)CCC4=C3[C@@H](c3cc(C)c(OCCO[C@H]4CC[C@@]5(C)[C@@H](C4)C[C@@H](O)[C@@H]4[C@@H]5C[C@H](O)[C@]5(C)[C@@H]([C@H](C)CCC(=O)O)CC[C@@H]45)c(C)c3)C[C@@]21C | 4.9 | 200 |  |  | 0 |  |  | 12 | 0 |
| CC#C[C@]1(O)CC[C@H]2[C@@H]3CCC4=CC(=O)CCC4=C3[C@@H](c3ccc(Oc4ccccc4)cc3)C[C@@]21C | 1.5 | 18.8 |  |  |  |  |  |  |  |
| CC#C[C@]1(O)CC[C@H]2[C@@H]3CCC4=CC(=O)CCC4=C3[C@@H](c3cc(F)c(OC)cc3F)C[C@@]21C | 3.2 | 15 |  |  |  |  |  |  |  |
| C=CCOc1ccc([C@H]2C[C@@]3(C)[C@@H](CC[C@@]3(O)C#CC)[C@@H]3CCC4=CC(=O)CCC4=C32)cc1Cl | 0.4 | 4.7 |  |  |  |  |  |  |  |
| CC#C[C@]1(O)CC[C@H]2[C@@H]3CCC4=CC(=O)CCC4=C3[C@@H](c3ccc(N(C)CCO[C@H]4CC[C@@]5(C)[C@@H](C4)C[C@@H](O)[C@@H]4[C@@H]5C[C@H](O)[C@]5(C)[C@@H]([C@H](C)CCC(=O)O)CC[C@@H]45)cc3)C[C@@]21C | 1.2 | 10 | 0.041 | 26.5 | 72 | 4.5 | 98 | 86 | 9 |
| CC#C[C@]1(O)CC[C@H]2[C@@H]3CCC4=CC(=O)CCC4=C3[C@@H](c3ccc(N(C)C)cc3)C[C@@]21C [MIFEPRISTONE] |  |  | 0.044 | 26.5 | 101 | 3.9 | 70 | 77 | 104 |
| CC#C[C@]1(O)CC[C@H]2[C@@H]3CCC4=CC(=O)CCC4=C3[C@@H](c3ccc(OC)c(C)c3)C[C@@]21C | 0.1 | 1.1 |  | 18.1 | 97 | 4.8 | 87 |  | 67 |
